Data set [1] concerns participants diagnosed with at least moderate post-traumatic stress disorder (PTSD). Description: Double-blind, randomized, placebo-controlled clinical trial of methylone-assisted psychotherapy in PTSD. As to conditions: for CAPS-5 assessments: Intervening Session 1C, 2C, 3C and Study Conclusion; for daytime sleepiness as measured by ESS / change in CAPS-5 assessment / clinician-rated functional impairment score as measured by SDS / depression as measured by HAM-D: at Study Conclusion; for change in CAPS-5 assessment: vs placebo group, with psychotherapy. Type of data set: in vivo, human. On the procedure:
A multicenter, randomized, double-blind, placebo-controlled trial is conducted to assess the efficacy and safety of methylone-assisted psychotherapy versus psychotherapy with placebo control in participants diagnosed with at least moderate post-traumatic stress disorder (PTSD).
This multicenter, randomized, double-blind, placebo-controlled trial is conducted at various sites in the United States with IRB approval from each study site. A flexible dose of methylone hydrochloride salt or placebo, followed by a supplemental half-dose unless contraindicated by patient's previous response or medical history, is also administered during the Treatment Period with psychotherapy in at least 3 blinded monthly Experimental Sessions. The Supplemental Dose extends the duration of drug effects on the participants during an Experimental Session. Methylone test groups are further subdivided into specific groups receiving only racemic methylone hydrochloride salt, S-methylone hydrochloride salt, or R-methylone hydrochloride salt. An optional Risk Evaluation and Mitigation Strategy (REMS) Protocol may be implemented for the racemic methylone, S-methylone, and placebo-groups. The Treatment Period lasts for approximately 12 weeks. During the Treatment Period, each Experimental Session is followed by three Intervening Sessions of non-drug psychotherapy. Each Experimental Session involves an overnight stay. The Primary Outcome measure, the change in Clinician Administered PTSD Scale for DSM-5 (CAPS-5), is determined by a blinded Independent Rater (IR) pool multiple times throughout the study. The study consists of separate periods for each participant. Initially, prospective participants undergo a Screening Period involving an initial eligibility assessment, a medical history intake, informed consent, and enrollment of eligible participants. Next, a Preparation Period is undertaken for enrolled participants involving medication tapering and clinical baseline assessments to confirm each participant meets enrollment criteria. As part of the Preparation Period, a detailed assessment of co-morbidities to PTSD is recorded. Participants may remain on prescribed courses of selective serotonin reuptake inhibitor (SSRI) or serotonin and norepinephrine reuptake inhibitor (SNRI) treatment. Dosages and/or frequency of administration of a prescribed SSRI or SNRI may be adjusted to fit within study parameters. Participants may be required to taper a prescribed course of medication in order to maintain eligibility within the study. The Treatment Period consists of three monthly Experimental Sessions and associated Intervening Sessions of integrative behavioral psychotherapy. The Treatment Period lasts approximately 12 weeks. Following the Treatment Period is a Follow-up Period and Study Conclusion. During the Follow-up Period and Study Conclusion, participants complete 4 weeks with no study visits, followed by a Study Conclusion visit.
This study compares the effects of three blinded Experimental Sessions of psychotherapy in combination with flexible doses of methylone or placebo administered as described below. Non-drug preparatory and intervening psychotherapy sessions are also included. Patient's weight is determined for dosage calculation. Initial dose is 100 mg unless this will result in a dosage of less than 1.5 mg/kg of patient weight. Initial dose thereby adjusted upward in 25 mg increments to deliver the lowest dose possible of at least 1.5 mg/kg of patient weight. Initial dose for Experimental Session 2 and 3 is cumulative dose calculated by adding the initial dose plus REMS protocol dose used the previous Experimental Session for each patient.
Randomization occurs prior to the initiation of Experimental Session 1. Each participant is provided the next randomized number in a sequence by a blinded study monitor. […]

Data set [2] is described as follows: Plasma and brain concentration at end of zero maze study. Type of data set: in vivo, rat. As to conditions: end of zero maze study, 5, 15, 30 mg/kg ip, FIG. 68 and FIG. 69. Here is the method:
Terminal sampling. At the end of the study, terminal blood was collected from 2 of the vehicle treated rats (>5 mL) and from all methylone HCl treated rats (500 uL) by CP under CO2. Blood samples were placed into Eppendorf tubes on ice containing 22 μL/mL blood (vehicle treated) or 11 μL EDTA (93 mg/mL) (Methylone HCl treated rats) and gently mixed. After no longer than 30 min, blood samples were centrifuged at 10,000 rpm×3 min and plasma samples (>2 mL (vehicle) or 2×100 μL (Methylone HCl treated) placed into Eppendorf tubes (Vehicle) or 96 well plates on dry ice. Immediately after blood sampling, brains were excised, rinsed in saline, blotted, weighed and snap-frozen in liquid N2. All samples were stored at −20° C. until dispatched on dry ice for analysis.
Terminal sampling. At the end of the study, terminal blood was collected from 2 of the vehicle treated rats (>5 mL) and from all S-methylone HCl treated rats (500 uL) by CP under CO2. Blood samples were placed into Eppendorf tubes on ice containing 22 μL/mL blood (vehicle treated) or 11 μL EDTA (93 mg/mL) (S-methylone HCl treated rats) and gently mixed. […]

Data set [3] can be described thus: Solubility screen of methylone hydrochloride in solvents. Type of data set: physicochemical. As to conditions: thermodynamic from solid, visual. On the procedure: The experiments were carried out by adding the test solvent in aliquots to weighed portions of solid. Whether dissolution had occurred was judged by visual inspection after addition of each solvent aliquot. Solubility numbers recorded in Table 4 were calculated by dividing the weight of the sample by the total amount of solvent used to dissolve the sample. The actual solubilities may be greater than the numbers calculated because of the use of solvent aliquots that were too large or because of slow dissolution rates. All solubility measurements were carried out at room temperature unless noted otherwise.

Counter-ions that a name gives are not always drawn. Some results are limits rather than exact numbers.

One may read the solubility as the concentration that dissolves in the medium under given conditions.

Take `CN[C@@H](C)C(=O)c1ccc2c(c1)OCO2` [(S)-Methylone Hydrochloride, (S)-1-(Benzo[d][1,3]dioxol-5-yl)-2-(methylamino)propan-1-one Hydrochloride]: in data set [1] (vs placebo-treated controls), the CAPS-5 assessments entry was “Significant improvements in CAPS-5 assessments”, the “clinician-rated functional impairment score as measured by SDS” value is reported as “a significant improvement in clinician-rated functional impairment score” and the “depression as measured by HAM-D” value is “a significant improvement depression”. For the same molecule, the “total dosage of drug needed for significant mean reduction in CAPS-5, compared to racemic methylone-treated subgroup” value in data set [1] (PTSD participants) is recorded as “lower total dosage of drug”. Further, in data set [1], the “daytime sleepiness as measured by ESS” value is recorded as “a significant improvement in lessening daytime sleepiness” and the “change in CAPS-5 assessment” value is “a significant mean reduction in CAPS-5 assessment”.

For the molecule `CN[C@H](C)C(=O)c1ccc2c(c1)OCO2` [(R)-Methylone Hydrochloride, (R)-1-(Benzo[d][1,3]dioxol-5-yl)-2-(methylamino)propan-1-one Hydrochloride], in data set [1] (vs placebo-treated controls), the CAPS-5 assessments entry is reported as “Significant improvements in CAPS-5 assessments”, the “clinician-rated functional impairment score as measured by SDS” value is on record as “a significant improvement in clinician-rated functional impairment score” and the “depression as measured by HAM-D” value was “a significant improvement depression”. Further, the adverse anxiogenic incidents entry in data set [1] (PTSD participants, vs placebo-treated controls) is “without a significant increase in adverse anxiogenic incidents”. Also, in data set [1], the “daytime sleepiness as measured by ESS” value is given as “a significant improvement in lessening daytime sleepiness” and the “change in CAPS-5 assessment” value is given as “a significant mean reduction in CAPS-5 assessment”.

As to `CNC(C)C(=O)c1ccc2c(c1)OCO2` (racemic) [(rac)-Methylone Hydrochloride, 3,4-methylenedioxy-N-methylcathinone hydrochloride], the “concentration in plasma and brain” value in data set [2] is “increased in both brain and plasma at the higher doses”. Also, the solubility in data set [3] (acetonitrile, organic solvent or mixture, ACN, room temperature) was less than 1000 µg/mL; in data set [3] (chloroform, organic solvent or mixture, CHCl3, room temperature), less than 1000 µg/mL; in data set [3] (ethanol, organic solvent or mixture, EtOH, room temperature), 8000 µg/mL; in data set [3] (ethyl acetate (wet), organic solvent or mixture, EtOAc (wet), room temperature) it was 9000 µg/mL; in data set [3] (methanol, organic solvent or mixture, MeOH, room temperature) it was 48000 µg/mL; in data set [3] (methanol/chloroform 50/50, organic solvent or mixture, MeOH/CHCl3 50/50, room temperature) it was 45000 µg/mL. The solubility in data set [3] (organic solvent or mixture, Acetone, room temperature) was less than 1000 µg/mL; in data set [3] (organic solvent or mixture, DMF, room temperature) it was 5000 µg/mL; in data set [3] (organic solvent or mixture, THF, room temperature), less than 1000 µg/mL; in data set [3] (water, H2O, room temperature), 47000 µg/mL. The CAPS-5 assessments entry in data set [1] (vs placebo-treated controls) is “Significant improvements in CAPS-5 assessments”. In addition, the “daytime sleepiness as measured by ESS” value in data set [1] is reported as “a significant improvement in lessening daytime sleepiness”. The “change in CAPS-5 assessment” value in data set [1] was “a significant mean reduction in CAPS-5 assessment”. The “clinician-rated functional impairment score as measured by SDS” value in data set [1] (vs placebo-treated controls) is given as “a significant improvement in clinician-rated functional impairment score”. Moreover, the “depression as measured by HAM-D” value in data set [1] (vs placebo-treated controls) is “a significant improvement depression”.

The values above are taken from patent US20240294488A1, “ISOTOPOLOGES, SALTS, CRYSTALLINE FORMS, STEREOISOMERS, OF METHYLONE AND ETHYLONE AND METHODS OF USE THEREOF” (Terran Biosciences Inc., priority 2021, published 2024).
